These results are taken from US20250171423A1, “PHARMACEUTICAL COMPOUNDS FOR THE TREATMENT OF COMPLEMENT MEDIATED DISORDERS” (Achillion Pharmaceuticals, Inc., priority 2020, published 2025).

This assay deals with T1, Human complement C1s enzyme (Homo sapiens, UniProt P09871).
T1 construct: purified from human serum, Complement Technology, Inc; purchased Complement Technology, Inc; host or cells: human serum
T1 sequence (P09871 438-688 limits assumed): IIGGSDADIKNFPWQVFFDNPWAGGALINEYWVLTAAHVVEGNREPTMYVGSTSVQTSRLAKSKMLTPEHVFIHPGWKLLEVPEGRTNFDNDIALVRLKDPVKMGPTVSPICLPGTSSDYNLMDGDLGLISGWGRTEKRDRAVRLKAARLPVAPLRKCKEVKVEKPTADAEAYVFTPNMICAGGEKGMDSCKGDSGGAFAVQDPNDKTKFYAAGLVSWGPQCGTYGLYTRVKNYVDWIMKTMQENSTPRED
T1 sequence (P09871 16-437 partner limits assumed): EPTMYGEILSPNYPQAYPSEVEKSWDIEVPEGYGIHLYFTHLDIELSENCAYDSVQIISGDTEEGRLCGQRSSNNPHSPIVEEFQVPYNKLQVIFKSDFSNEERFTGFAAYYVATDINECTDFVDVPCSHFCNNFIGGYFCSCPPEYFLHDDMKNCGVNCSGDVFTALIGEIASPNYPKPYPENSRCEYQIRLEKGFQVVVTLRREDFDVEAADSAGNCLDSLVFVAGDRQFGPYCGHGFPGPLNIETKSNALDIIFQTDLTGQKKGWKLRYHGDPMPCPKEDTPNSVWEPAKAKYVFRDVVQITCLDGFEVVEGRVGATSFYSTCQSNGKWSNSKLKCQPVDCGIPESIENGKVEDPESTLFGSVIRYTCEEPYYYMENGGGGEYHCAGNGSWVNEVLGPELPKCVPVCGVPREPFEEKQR
The experiment in a line: Human C1s Enzyme Assay. Type of assay: biochemical. Conditions: human C1s 1.16 nM, 5 min preincubation, substrate Z-L-Lys-SBzl 100 μM, A405; read-out: C1s Protease Activity. As to the method: The assay of Example 3 was used to determine the IC50's of the compounds. Other standard complement assays are also available.
Example 3. Human C1s Enzyme Assay
Human complement C1s enzyme (purified from human serum, Complement Technology, Inc.) at 1.16 nM final concentration was incubated with test compound at various concentrations for 5 min at room temperature in 50 mM Tris, 1 M NaCl, pH 7.5. A synthetic substrate Z-L-Lys-SBzl and DTNB (Ellman's reagent) were added to final concentrations of 100 μM each. Absorbance at 405 nm (A405) was recorded at 30 second intervals for 30 min using a microplate spectrophotometer. IC50 values were calculated by nonlinear regression of complement C1s reaction rates as a function of test compound concentration.

Each structure is given as a SMILES string. Some results are limits rather than exact numbers.

Regarding `C[C@@]12C[C@@H]1N(C(=O)CNC(=O)c1ccc(Oc3ccccc3)cn1)[C@H](C(=O)NCc1cc(C(=N)N)cs1)C2` [Compound 93, (1S,3S,5S)-N-((4-carbamimidoylthiophen-2-yl)methyl)-5-methyl-2-((5-phenoxy-picolinoyl)glycyl)-2-azabicyclo[3.1.0]hexane-3-carboxamide], the IC50 is less than 100 nM. As for `N=C(N)c1csc(CNC(=O)[C@@H]2C[C@@H](C3CCCC3)CN2C(=O)CNC(=O)c2ccc(Oc3ccccc3)cc2)c1` [Compound 54, (2S,4S)-N-((4-carbamimidoylthiophen-2-yl)methyl)-4-cyclopentyl-1-((4-phenoxy-benzoyl)glycyl)pyrrolidine-2-carboxamide], the IC50 was less than 100 nM. With `CC(COc1ccccc1)CC(=O)NCC(=O)N1CC2(C[C@H]1C(=O)NCc1cc(C(=N)N)cs1)OCCO2` (stereo partly drawn) [Compound 70, (8S)-N-((4-carbamimidoylthiophen-2-yl)methyl)-7-((3-methyl-4-phenoxybutanoyl)glycyl)-1,4-dioxa-7-azaspiro[4.4]nonane-8-carboxamide] the figure was less than 100 nM; with `C[C@@]12C[C@@H]1N(C(=O)CNC(=O)CCCOc1ccccc1)[C@H](C(=O)NCc1cc(C(=N)N)c(F)s1)C2` [Compound 245, (1S,3S,5S)-N-((4-carbamimidoyl-5-fluorothiophen-2-yl)methyl)-5-methyl-2-((4-phenoxybutanoyl)glycyl)-2-azabicyclo[3.1.0]hexane-3-carboxamide], less than 100 nM. Regarding `N=C(N)c1csc(CNC(=O)[C@@H]2CC[C@@H]3CC[C@H](NC(=O)c4ccc(Oc5ccccc5)cc4)C(=O)N32)c1` [Compound 211, (3S,6S,8aS)-N-((4-carbamimidoylthiophen-2-yl)methyl)-5-oxo-6-(4-phenoxybenzamido)octahydroindolizine-3-carboxamide], the IC50 lay in the range of 100 to 1000 nM. With `C[C@@]12C[C@@H]1N(C(=O)CNC(=O)CCCOc1ccc(S(C)(=N)=O)cc1)[C@H](C(=O)NCc1cc(C(=N)N)cs1)C2` (stereo partly drawn) [Compound 76, (1S,3S,5S)-N-((4-carbamimidoylthiophen-2-yl)methyl)-5-methyl-2-((4-(4-(S-methyl-sulfonimidoyl)phenoxy)butanoyl)glycyl)-2-azabicyclo[3.1.0]hexane-3-carboxamide] the figure was 100 to 1000 nM; with `C[C@@H](NC(=O)[C@@H]1C[C@@H](Oc2ccc(F)cc2)CN1C(=O)CNC(=O)CCCOc1ccccc1)c1cc(C(=N)N)cs1` [Compound 119, (2S,4R)-N-((R)-1-(4-carbamimidoylthiophen-2-yl)ethyl)-4-(4-fluorophenoxy)-1-((4-phenoxybutanoyl)glycyl)pyrrolidine-2-carboxamide], less than 100 nM; with `Cc1cccc([C@@H]2C[C@@H](C(=O)NCc3cc(C(=N)N)cs3)N(C(=O)CNC(=O)CCCOc3ccccc3)C2)c1` [Compound 171, (2S,4S)-N-((4-carbamimidoylthiophen-2-yl)methyl)-1-((4-phenoxybutanoyl)glycyl)-4-(m-tolyl)pyrrolidine-2-carboxamide], less than 100 nM. On to `C[C@@H](NC(=O)[C@@H]1C[C@]2(C)C[C@@H]2N1C(=O)CNC(=O)CCCOc1ccccc1)c1cc(C(=N)N)cs1` [Compound 122, (1S,3S,5S)-N-((R)-1-(4-carbamimidoylthiophen-2-yl)ethyl)-5-methyl-2-((4-phenoxy-butanoyl)glycyl)-2-azabicyclo[3.1.0]hexane-3-carboxamide], for which the IC50 is less than 100 nM. Regarding `CC(=O)NCCOC[C@@]12C[C@@H]1N(C(=O)CNC(=O)c1ccc(Oc3ccccc3)cc1)[C@H](C(=O)NCc1cc(C(=N)N)cs1)C2` [Compound 74, (1S,3S,5R)-5-((2-acetamidoethoxy)methyl)-N-((4-carbamimidoylthiophen-2-yl)methyl)-2-((4-phenoxybenzoyl)glycyl)-2-azabicyclo[3.1.0]hexane-3-carboxamide], the IC50 was less than 100 nM.

With `C[C@@]12C[C@@H]1N(C(=O)CNC(=O)c1ccc(Oc3ccc(C(F)(F)F)cn3)cc1)[C@H](C(=O)NCc1cc(C(=N)N)cs1)C2` [Compound 154, (1S,3S,5S)-N-((4-carbamimidoylthiophen-2-yl)methyl)-5-methyl-2-((4-((5-(trifluoromethyl)pyridin-2-yl)oxy)benzoyl)glycyl)-2-azabicyclo[3.1.0]hexane-3-carboxamide], the IC50 was less than 100 nM. Take `C[C@@]12C[C@@H]1N(C(=O)CNC(=O)c1ccc(Oc3ccccc3)cc1)[C@H](C(=O)NCc1cc(-c3ncc[nH]3)cs1)C2` [Compound 38, (1S,3S,5S)-N-((4-(1H-imidazol-2-yl)thiophen-2-yl)methyl)-5-methyl-2-((4-phenoxybenzoyl)glycyl)-2-azabicyclo[3.1.0]hexane-3-carboxamide]: the IC50 is less than 100 nM. In the case of `C[C@@]12C[C@@H]1N(C(=O)CNC(=O)CCOc1ccccc1)[C@H](C(=O)NCc1cc(C(=N)N)cs1)C2` [Compound 58, (1S,3S,5S)-N-((4-carbamimidoylthiophen-2-yl)methyl)-5-methyl-2-((3-phenoxy-propanoyl)glycyl)-2-azabicyclo[3.1.0]hexane-3-carboxamide], the IC50 is less than 100 nM. With `N=C(N)c1csc(CNC(=O)[C@@H]2C[C@@H](Oc3ccccc3)CN2C(=O)CNC(=O)CCCOc2ccccc2)c1` [Compound 69, (2S,4R)-N-((4-carbamimidoylthiophen-2-yl)methyl)-4-phenoxy-1-((4-phenoxy-butanoyl)glycyl)pyrrolidine-2-carboxamide] the figure was less than 100 nM. `N=C(N)c1csc(CNC(=O)[C@@H]2CC3(CC3)CN2C(=O)CNC(=O)CCCOc2ccccc2)c1` [Compound 55, (S)-N-((4-carbamimidoylthiophen-2-yl)methyl)-5-((4-phenoxybutanoyl)glycyl)-5-azaspiro[2.4]heptane-6-carboxamide]: the IC50 was less than 100 nM. As for `C[C@@]12C[C@@H]1N(C(=O)CNC(=O)c1ccc(Oc3ccccc3)cc1)[C@H](C(=O)NCc1cc(/C(N)=N/[N+](=O)[O-])cs1)C2` [Compound 11, (1S,3S,5S)-5-methyl-N-((4-((Z)-N′-nitrocarbamimidoyl)thiophen-2-yl)methyl)-2-((4-phenoxybenzoyl)glycyl)-2-azabicyclo[3.1.0]hexane-3-carboxamide], the IC50 is more than 1000 nM. In the case of `C[C@@]12C[C@@H]1N(C(=O)CNC(=O)c1ccc(C3(c4ccccc4)COC3)cc1)[C@H](C(=O)NCc1cc(C(=N)N)cs1)C2` [Compound 168, (1S,3S,5S)-N-((4-carbamimidoylthiophen-2-yl)methyl)-5-methyl-2-((4-(3-phenyloxetan-3-yl)benzoyl)glycyl)-2-azabicyclo[3.1.0]hexane-3-carboxamide] it was less than 100 nM; in that of `N=C(N)c1csc([C@H](NC(=O)[C@@H]2C[C@@H](OC(F)F)CN2C(=O)CNC(=O)c2ccc(Oc3ccccc3)cc2)c2ccccc2)c1` [Compound 200, (2S,4R)-N-((R)-(4-carbamimidoylthiophen-2-yl)(phenyl)methyl)-4-(difluoromethoxy)-1-((4-phenoxybenzoyl)glycyl)pyrrolidine-2-carboxamide], more than 1000 nM; in that of `N=C(N)c1csc(CNC(=O)[C@@H]2C[C@H](c3ccc(F)cc3)CN2C(=O)CNC(=O)CCCOc2ccccc2)c1` [Compound 159, (2S,4R)-N-((4-carbamimidoylthiophen-2-yl)methyl)-4-(4-fluorophenyl)-1-((4-phenoxybutanoyl)glycyl)pyrrolidine-2-carboxamide], less than 100 nM.

With `CO/N=C(\N)c1csc(CNC(=O)[C@@H]2C[C@]3(C)C[C@@H]3N2C(=O)CNC(=O)c2ccc(Oc3ccccc3)cc2)c1` [Compound 6, (1S,3S,5S)-N-((4-((Z)-N′-methoxycarbamimidoyl)thiophen-2-yl)methyl)-5-methyl-2-((4-phenoxybenzoyl)glycyl)-2-azabicyclo[3.1.0]hexane-3-carboxamide], the IC50 is more than 1000 nM. For `Cc1ccc(O[C@@H]2C[C@@H](C(=O)N[C@H](C)c3cc(C(=N)N)cs3)N(C(=O)CNC(=O)CCCOc3ccccc3)C2)cc1` [Compound 131, (2S,4R)-N-((R)-1-(4-carbamimidoylthiophen-2-yl)ethyl)-1-((4-phenoxybutanoyl)glycyl)-4-(p-tolyloxy)pyrrolidine-2-carboxamide], the IC50 was less than 100 nM.

Regarding `N=C(N)c1csc(CNC(=O)[C@@H]2C[C@](F)(CN)CN2C(=O)CNC(=O)CCCOc2ccccc2)c1` [Compound 109, (2S,4S)-4-(aminomethyl)-N-((4-carbamimidoylthiophen-2-yl)methyl)-4-fluoro-1-((4-phenoxybutanoyl)glycyl)pyrrolidine-2-carboxamide], the IC50 was less than 100 nM.
